Experimental data as given in ChEMBL document CHEMBL4422633, “Antioxidant-Inspired Drug Discovery: Antitumor Metabolite Is Formed in Situ from a Hydroxycinnamic Acid Derivative upon Free-Radical Scavenging” (J Med Chem, 2019).
Calls of active or inactive are those of the source. The calls are words filed in the database; no cut-off is given here.

What was measured:
[1] = Cytotoxicity against mouse L5178 cells assessed as reduction in cell viability after 72 hrs by MTT assay; assay type: functional, cell-based; details: L5178, 72 h
[2] = Cytotoxicity against mouse L5178B1 cells transfected with pHa MDR1/A retrovirus assessed as reduction in cell viability after 72 hrs by MTT assay; assay type: functional, cell-based; details: MDR1, 72 h
[3] = tested on: NCI-H460; test: Cytotoxicity against human NCI-H460 cells assessed as reduction in cell viability after 72 hrs by MTT assay; assay type: functional, cell-based; details: NCI-H460, 72 h
[4] = Cytotoxicity against human NCI-H460/R cells transfected with MDR assessed as reduction in cell viability after 72 hrs by MTT assay; assay type: functional, cell-based; details: NCI-H460, 72 h
[5] = tested on: A549; test: Cytotoxicity against human A549 cells assessed as reduction in cell viability after 72 hrs by MTT assay; assay type: functional, cell-based; details: A549, 72 h
[6] = tested on: NCI-H661; test: Cytotoxicity against human NCI-H661 cells assessed as reduction in cell viability after 72 hrs by MTT assay; assay type: functional, cell-based; details: NCI-H661, 72 h
[7] = tested on: HaCaT; test: Cytotoxicity against human HaCaT cells assessed as reduction in cell viability after 72 hrs by MTT assay; assay type: cell-based
[8] = tested on: MCF7; test: Cytotoxicity against human MCF7 cells assessed as reduction in cell viability after 72 hrs by MTT assay; assay type: functional, cell-based; details: MCF7, 72 h
[9] = tested on: HeLa; test: Cytotoxicity against human HeLa cells assessed as reduction in cell viability after 72 hrs by MTT assay; assay type: functional, cell-based
[10] = tested on: SiHa; test: Cytotoxicity against human SiHa cells assessed as reduction in cell viability after 72 hrs by MTT assay; assay type: functional, cell-based
[11] = target: T1, Serine/threonine-protein kinase Chk1 (Homo sapiens) (UniProt O14757); test: Inhibition of CHK1 phosphorylation at S345 in human MCF7 cells at 10 uM pretreated for 30 mins followed by 10 J/m'2 irradiation and measured after 1 hr by Western blot analysis; assay type: cell-based
T1 sequence (whole entry): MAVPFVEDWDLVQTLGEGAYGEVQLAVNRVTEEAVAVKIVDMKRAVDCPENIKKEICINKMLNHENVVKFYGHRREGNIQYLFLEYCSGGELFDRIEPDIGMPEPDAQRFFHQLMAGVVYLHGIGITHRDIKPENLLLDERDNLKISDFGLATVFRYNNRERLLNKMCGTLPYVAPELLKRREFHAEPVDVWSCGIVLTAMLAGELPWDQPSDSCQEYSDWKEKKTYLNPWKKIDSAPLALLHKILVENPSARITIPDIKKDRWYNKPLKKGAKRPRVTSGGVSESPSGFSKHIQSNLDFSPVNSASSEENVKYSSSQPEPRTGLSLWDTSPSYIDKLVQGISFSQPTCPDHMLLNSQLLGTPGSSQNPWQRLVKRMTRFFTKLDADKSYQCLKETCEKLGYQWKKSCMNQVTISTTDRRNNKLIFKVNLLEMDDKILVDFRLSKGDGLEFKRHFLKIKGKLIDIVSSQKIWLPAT

[12] = target: Serine/threonine-protein kinase Chk2 (Homo sapiens) (UniProt O96017); test: Inhibition of CHK2 phosphorylation at T68 in human MCF7 cells at 10 uM pretreated for 30 mins followed by 10 J/m'2 irradiation and measured after 1 hr by Western blot analysis; assay type: cell-based
Chain of Serine/threonine-protein kinase Chk2 (Homo sapiens) (O96017 whole entry): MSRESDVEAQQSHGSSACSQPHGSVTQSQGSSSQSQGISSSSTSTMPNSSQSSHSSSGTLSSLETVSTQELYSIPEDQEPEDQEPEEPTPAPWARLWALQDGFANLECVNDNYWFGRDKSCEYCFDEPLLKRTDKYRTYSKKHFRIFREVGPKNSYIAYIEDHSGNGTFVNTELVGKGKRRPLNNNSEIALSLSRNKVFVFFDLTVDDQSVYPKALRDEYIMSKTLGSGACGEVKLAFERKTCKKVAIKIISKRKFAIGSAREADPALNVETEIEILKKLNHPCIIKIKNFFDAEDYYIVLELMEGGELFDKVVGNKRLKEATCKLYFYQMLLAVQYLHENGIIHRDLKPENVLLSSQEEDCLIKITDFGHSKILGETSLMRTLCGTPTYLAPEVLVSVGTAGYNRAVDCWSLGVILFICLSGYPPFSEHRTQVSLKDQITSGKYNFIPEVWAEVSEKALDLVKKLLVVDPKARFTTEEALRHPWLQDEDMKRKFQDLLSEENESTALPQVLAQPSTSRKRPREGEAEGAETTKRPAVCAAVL

[13] = Antioxidant activity assessed as hydroxyl radical scavenging activity by measuring inhibition of damage to 2-deoxy-D-ribose after 3 mins by TBA-based Fenton reaction assay; assay type: functional
[14] = tested on: MCF7; test: Cytotoxicity against human MCF7 cells assessed as combination index measured at ED50 at H2O2/pcm ratio of 2.5:1 in presence of H2O2 after 48 hrs by MTT assay; assay type: functional
[15] = tested on: MCF7; test: Cytotoxicity against human MCF7 cells assessed as combination index measured at ED75 at H2O2/pcm ratio of 2.5:1 in presence of H2O2 after 48 hrs by MTT assay; assay type: functional
[16] = tested on: MCF7; test: Cytotoxicity against human MCF7 cells assessed as combination index measured at ED90 at H2O2/pcm ratio of 2.5:1 in presence of H2O2 after 48 hrs by MTT assay; assay type: functional
[17] = tested on: Liver; test: Antioxidant activity in rat liver microsomes assessed as reduction in lipid peroxidation; assay type: functional, Microsome
[18] = tested on: MCF7; test: Cytotoxicity against human MCF7 cells assessed as combination index measured at ED50 at H2O2/pcm ratio of 1.25:1 in presence of H2O2 after 48 hrs by MTT assay; assay type: functional
[19] = tested on: MCF7; test: Cytotoxicity against human MCF7 cells assessed as combination index measured at ED75 at H2O2/pcm ratio of 1.25:1 in presence of H2O2 after 48 hrs by MTT assay; assay type: functional
[20] = tested on: MCF7; test: Cytotoxicity against human MCF7 cells assessed as combination index measured at ED90 at H2O2/pcm ratio of 1.25:1 in presence of H2O2 after 48 hrs by MTT assay; assay type: functional
[21] = tested on: MCF7; test: Cytotoxicity against human MCF7 cells assessed as combination index measured at ED50 at H2O2/pcm ratio of 0.625:1 in presence of H2O2 after 48 hrs by MTT assay; assay type: functional
[22] = tested on: MCF7; test: Cytotoxicity against human MCF7 cells assessed as combination index measured at ED75 at H2O2/pcm ratio of 0.625:1 in presence of H2O2 after 48 hrs by MTT assay; assay type: functional
[23] = tested on: MCF7; test: Cytotoxicity against human MCF7 cells assessed as combination index measured at ED90 at H2O2/pcm ratio of 0.625:1 in presence of H2O2 after 48 hrs by MTT assay; assay type: functional
[24] = Stability in MeOH and H2O2 by HPLC-PDA assay; assay type: physicochemical
[25] = Drug metabolism assessed as methyl 3-(1-hydroxy-4-oxocyclohexa-2,5-dienyl)acrylate formation by reverse phase-HPLC and HPLC-MS analysis based Fenton reaction assay

`COC(=O)/C=C/c1ccc(O)cc1` [METHYL P-HYDROXYCINNAMATE] showed an IC50 [1] of 126 µM, an IC50 [2] greater than 150 µM and an IC50 [3] of 120 µM. The IC50 [4] was 1.04 mM, the IC50 [5] was 323 µM and the IC50 [6] was 289 µM. It also gave an IC50 [7] of 311 µM, an IC50 [8] greater than 400 µM and an IC50 [9] greater than 150 µM. For the same molecule, the IC50 [10] was greater than 150 µM, the inhibition [11] was “inactive” and the inhibition [12] was “inactive”. It also gave an IC50 [13] of 345 µM, a CI [14] of 0.79 and a CI [15] of 0.6. It also gave a CI [16] of 0.45, an IC50 [17] of 400 nM and a CI [18] of 0.93. It also gave a CI [19] of 0.6, a CI [20] of 0.39 and a CI [21] of 1.06. The CI [22] was 0.68, the CI [23] was 0.44 and the Stability [24] was “<= 92 hr”. The Drug metabolism [25] was “Metabolite detected”.
